{
  "source": "patent US20100216825A1",
  "about": "“FUNGICIDAL COMPOSITIONS” (SYNGENTA CROP PROTECTION, INC., priority 2006, published 2010)",
  "format_in_all_cases": "cell-based",
  "key": {"Pythium ultimum": {"system": "Pythium ultimum", "assay": "Action against Pythium ultimum (damping off), growth inhibition in nutrient broth (microtiter plate, photometric)", "details": "each active ingredient at 0.67 ppm [mg/L] final medium; 24° C., 48 hrs"}, "Pyricularia oryzae": {"system": "Pyricularia oryzae", "details": "24° C., 72 hrs"}, "Botrytis cinerea": {"system": "Botrytis cinerea", "assay": "Action against Botrytis cinerea, growth inhibition in nutrient broth (microtiter plate, photometric)", "details": "24° C., 48-72 hrs"}, "Pyrenophora teres": {"system": "Pyrenophora teres", "assay": "Action against Pyrenophora teres (net blotch), growth inhibition in nutrient broth (microtiter plate, photometric)", "details": "24° C., 48 hrs"}, "Alternaria solani": {"system": "Alternaria solani", "assay": "Action against Alternaria solani (early blight), growth inhibition in nutrient broth (microtiter plate, photometric)", "details": "24° C., 48 hrs"}, "[1]": {"details": "each active ingredient at 0.02 ppm [mg/L] final medium"}},
  "note": "Several values for one entry are separate records, joined by “and”; a condition that tells them apart may be missing. Identical values can stand only once. Like-named read-outs stand apart in the source and are kept apart here.",
  "data": [
    {"smiles": "CC(C)C1C2CCC1c1c(NC(=O)c3cn(C)nc3C(F)F)cccc12", "note": "(racemic) [Cpd I, 3-difluoromethyl-1-methyl-1H-pyrazole-4-carboxylic acid (9-isopropyl-1,2,3,4-tetrahydro-1,4-methano-naphthalen-5-yl)-amide]", "values": [
      {"measurement": "Observed control in % (% Cobs) observed", "setting": "Pythium ultimum", "result": 0, "unit": "%"},
      {"measurement": "Observed control in % (% Cobs) observed", "setting": "Pyricularia oryzae; each active ingredient at 0.01 ppm [mg/L] final medium", "result": 11, "unit": "%"},
      {"measurement": "Observed control in % (% Cobs) observed", "setting": "Pyricularia oryzae; [1]", "result": 35, "unit": "%"},
      {"measurement": "Observed control in % (% Cobs) observed", "setting": "Botrytis cinerea; [1]", "result": 17, "unit": "%"},
      {"measurement": "Observed control in % (% Cobs) observed", "setting": "Botrytis cinerea; each active ingredient at 0.07 ppm [mg/L] final medium", "result": 61, "unit": "%"},
      {"measurement": "Observed control in % (% Cobs) observed", "setting": "Botrytis cinerea; each active ingredient at 0.22 ppm [mg/L] final medium", "result": 74, "unit": "%"},
      {"measurement": "Observed control in % (% Cobs) observed", "setting": "Botrytis cinerea; each active ingredient at 0.67 ppm [mg/L] final medium", "result": 79, "unit": "%"},
      {"measurement": "Observed control in % (% Cobs) observed", "setting": "Pyrenophora teres; each active ingredient at 0.5 ppm [mg/L] final medium", "result": 70, "unit": "%"},
      {"measurement": "Observed control in % (% Cobs) observed", "setting": "Pyrenophora teres; each active ingredient at 1 ppm [mg/L] final medium", "result": 79, "unit": "%"},
      {"measurement": "Observed control in % (% Cobs) observed", "setting": "Alternaria solani; each active ingredient at 0.004 ppm [mg/L] final medium", "result": "1% and 2%"},
      {"measurement": "Observed control in % (% Cobs) observed", "setting": "Alternaria solani; each active ingredient at 0.008 ppm [mg/L] final medium", "result": "5% and 2%"},
      {"measurement": "Observed control in % (% Cobs) observed", "setting": "Alternaria solani; each active ingredient at 0.016 ppm [mg/L] final medium", "result": "9% and 12% and 3%"},
      {"measurement": "Observed control in % (% Cobs) observed", "setting": "Alternaria solani; [1]", "result": 46, "unit": "%"}
    ]}
  ]
}
